Test results reported in patent EP2457572A1, “Use of atomic quantum clusters (aqcs) in the prevention of cell proliferative disorders, viral infections and autoimmune diseases” (Universidade De Santiago De Compostela, priority 2010, dated 2012).

Tested on: HL-60 cells
Assay: Activated caspase 3 by flow cytometry (PE Active Caspase-3 Apoptosis kit)
Format: cell-based
Settings: camptothecin 30µM, non treated control 7.4 %
Procedure: HL-60 cells were incubated with the various treatments. […] (It is well known that caspase 3 is the main effector of apoptosis mediated by caspase activation).

## CC[C@@]1(O)C(=O)OCc2c1cc1n(c2=O)Cc2cc3ccccc3nc2-1 [camptothecin]
  cells positive for activated caspase 3: 32.4%
